We go through 28 molecules from US20080255192A1, “Methods and Compositions for Selectin Inhibition” (Wyeth, priority 2007, published 2008).

Each structure is given as a SMILES string.

This assay concerns the target T1, P-selectin/PSGL-1 interaction (Homo sapiens, UniProt P16109).
T1 construct: comprised of the lectin and epidermal growth factor-like (EGF) domains expressed in CHO cells; made in house; host or cells: CHO cells (P-LE)
T1 sequence (P16109 42-198): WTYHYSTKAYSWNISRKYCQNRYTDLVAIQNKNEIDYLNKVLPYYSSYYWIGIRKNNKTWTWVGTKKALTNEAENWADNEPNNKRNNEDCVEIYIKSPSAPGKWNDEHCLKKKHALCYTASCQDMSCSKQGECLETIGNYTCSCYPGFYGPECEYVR
The assay is described as follows: Biacore P-Selectin/PSGL-1 Inhibition Assay (surface plasmon resonance). Type of assay: binding. Particulars: 250 uM test compound, 500 nM P.LE, immobilized PSGL-1 19ek, 10% DMSO, pH 7.4. As to the method:
Surface plasmon resonance assays were performed on a Biacore 3000 instrument (Biacore Inc. Piscataway, N.J.) at 25° C. at a flow rate of 30 μL/minute and each assay consisted of a 60-second equilibration, a 60-μL sample injection (kinject), and a 300-second dissociation.
A purified, monomeric, truncated form of human PSGL-1, “19ek”, that contained all the necessary P-selectin binding determinants (see Goetz, et al., J. Cell Biol., 1997, 137: 509-519; and Sako, et al., Cell, 1995, 83: 323-331) was biotinylated via amine chemistry (Sulfo-NHS-LC-Biotin, Peirce) at a unique C-terminal lysine residue (see Somers, et al., Cell, 2000, 103: 467-479) and immobilized on a Biacore SA sensor chip (Biacore Inc.), using an HBS-EP buffer (Biacore Inc.), and the target 600-700 RU. The coated chip was re-equilibrated with an HBS-P buffer (Biacore Inc.) to which 1 mM CaCl2 and 1 mM MgCl2 (both from Fisher) were added to ensure sufficient calcium for the calcium-dependent interaction between the receptor and the ligand.
Test compounds were incubated for 1 hour in a 1.1× Biacore assay buffer. Each solution was centrifuged through a 0.2 µm filter, using a 96-well plate format (Millipore). Glycyrrhizin tri-sodium salt (TCI) was prepared as a positive control in parallel with the test compounds, in the same manner described above.
A soluble recombinant truncated form of human P-selectin, P-LE, comprised of the lectin and epidermal growth factor-like (EGF) domains expressed in CHO cells (see Somers, et al., Cell, 2000, 103: 467-479) was added to each filtered test compound solution. Final concentrations of reagents were 500 nM P.LE, 250 or 500 μM test compound (depending on structure) or 1 mM glycyrrhizin, 10% DMSO, and 1× Biacore buffer ([…], 150 mM NaCl, 1 mM CaCl2, and 1 mM MgCl2 (all reagents from Fisher)), with a pH of 7.4. Compounds active at 250 μM were titrated to further define activity. Test samples were supplied to the Biacore instrument in a 96-well plate.
The Biacore raw data file was exported as a text file to an Excel spreadsheet, where the buffer blanks bracketing the samples were averaged for each Biacore instrument flow cell (Fc), and subtracted from the averaged uninhibited P.LE samples and from all the other samples. The reference signal from Fcl (uncoated) was then subtracted from its corresponding active (coated) signal for each injection, a process known as double referencing (see Myszka, J. Mol. Recognit., 1999, 12(5): 279-284). The percent inhibition of binding was calculated by dividing the reference-subtracted inhibited signal by the reference-subtracted uninhibited signal, subtracting this value from 1, and multiplying the resulting value by 100. The replicate percent inhibition values were averaged and expressed as the mean ±standard deviation. The inter-experiment standard deviation of calculated percent inhibitions in the Biacore assay was ±5.
With `O=C(O)c1c(O)c(C2(c3ccc(Cl)cc3)CC2)nc2c(OC(F)(F)F)cccc12` [Compound 1, 2-(1-(4-chlorophenyl)cyclopropyl)-3-hydroxy-8-(trifluoromethoxy)quinoline-4-carboxylic acid], the inhibition at 250 µM is 37%.
With `CCc1cccc2c(C(=O)O)c(O)c(C3(c4ccc(Cl)cc4)CC3)nc12` [Compound 2, 2-(1-(4-chlorophenyl)cyclopropyl)-8-ethyl-3-hydroxyquinoline-4-carboxylic acid], the inhibition at 250 µM came out at 67%.
For the molecule `CCC(C)c1cccc2c(C(=O)O)c(O)c(C3(c4ccc(Cl)cc4)CC3)nc12` (stereo not shown) [Compound 3, 8-sec-butyl-2-(1-(4-chlorophenyl)cyclopropyl)-3-hydroxyquinoline-4-carboxylic acid], the inhibition at 250 µM worked out at 18%.
In the case of `CC(C)(C)c1cccc2c(C(=O)O)c(O)c(C3(c4ccc(Cl)cc4)CC3)nc12` [Compound 4, 8-tert-butyl-2-(1-(4-chlorophenyl)cyclopropyl)-3-hydroxyquinoline-4-carboxylic acid] it was at most 10%; in that of `O=C(O)c1c(O)c(C2(c3ccc(Cl)cc3)CC2)nc2c(Cl)cccc12` [Compound 5, 8-chloro-2-(1-(4-chlorophenyl)cyclopropyl)-3-hydroxyquinoline-4-carboxylic acid], 93%; in that of `O=C(O)c1c(O)c(C2(c3ccc(Cl)cc3)CC2)nc2c(-c3ccccc3)cccc12` [Compound 6, 2-(1-(4-chlorophenyl)cyclopropyl)-3-hydroxy-8-phenylquinoline-4-carboxylic acid], 98%.
With `O=C(O)c1c(O)c(C2(c3ccc(Cl)cc3)CC2)nc2c(F)cccc12` [Compound 7, 2-(1-(4-chlorophenyl)cyclopropyl)-8-fluoro-3-hydroxyquinoline-4-carboxylic acid] the figure was at most 10%; with `O=C(O)c1c(O)c(C2(c3ccc(Cl)cc3)CC2)nc2ccccc12` [Compound 8, 2-(1-(4-chlorophenyl)cyclopropyl)-3-hydroxyquinoline-4-carboxylic acid], at most 10%.
`O=C(O)c1c(O)c(C2(c3ccc(Cl)cc3)CC2)nc2c(Br)cccc12` [Compound 9, 8-bromo-2-(1-(4-chlorophenyl)cyclopropyl)-3-hydroxyquinoline-4-carboxylic acid]: 250 µM produced 46% inhibition.
In the case of `Cc1cc(C)c2nc(C3(c4ccc(Cl)cc4)CC3)c(O)c(C(=O)O)c2c1` [Compound 10, 2-(1-(4-chlorophenyl)cyclopropyl)-3-hydroxy-6,8-dimethylquinoline-4-carboxylic acid] it was 47%; in that of `Cc1cccc2c(C(=O)O)c(O)c(C3(c4ccc(Cl)cc4)CC3)nc12` [Compound 11, 2-(1-(4-chlorophenyl)cyclopropyl)-3-hydroxy-8-methylquinoline-4-carboxylic acid], 43%.
`CCc1ccc2c(C(=O)O)c(O)c(C3(c4ccc(Cl)cc4)CC3)nc2c1` [Compound 12, 2-(1-(4-chlorophenyl)cyclopropyl)-7-ethyl-3-hydroxyquinoline-4-carboxylic acid] showed an inhibition at 250 µM of 13%.
For `Cc1ccc2c(C(=O)O)c(O)c(C3(c4ccc(Cl)cc4)CC3)nc2c1` [Compound 13, 2-(1-(4-chlorophenyl)cyclopropyl)-3-hydroxy-7-methylquinoline-4-carboxylic acid], the inhibition at 250 µM was at most 10%.
Turning to `CCc1cccc2c(C(=O)O)c(O)c(C3(c4ccccc4)CC3)nc12` [Compound 14, 8-ethyl-3-hydroxy-2-(1-phenylcyclopropyl)quinoline-4-carboxylic acid], the inhibition at 250 µM was determined as 23%.
`CCC(C)c1cccc2c(C(=O)O)c(O)c(C3(c4ccccc4)CC3)nc12` (stereo not shown) [Compound 15, 8-sec-butyl-3-hydroxy-2-(1-phenylcyclopropyl)quinoline-4-carboxylic acid]: the inhibition at 250 µM is 63%.
`O=C(O)c1c(O)c(C2(c3ccc(Cl)cc3)CC2)nc2cc(Cl)ccc12` [Compound 16, 7-chloro-2-(1-(4-chlorophenyl)cyclopropyl)-3-hydroxyquinoline-4-carboxylic acid] showed an inhibition at 250 µM of 28%.
With `O=C(O)c1c(O)c(C2(c3ccc(Cl)cc3)CC2)nc2ccc(F)cc12` [Compound 17, 2-(1-(4-chlorophenyl)cyclopropyl)-6-fluoro-3-hydroxyquinoline-4-carboxylic acid] the figure was at most 10%.
As for `O=C(O)c1c(O)c(C2(c3ccc(Cl)cc3)CC2)nc2ccc(Br)cc12` [Compound 18, 6-bromo-2-(1-(4-chlorophenyl)cyclopropyl)-3-hydroxyquinoline-4-carboxylic acid], the inhibition at 250 µM turned out to be 28%.
The molecule `Cc1ccc2nc(C3(c4ccc(Cl)cc4)CC3)c(O)c(C(=O)O)c2c1` [Compound 19, 2-(1-(4-chlorophenyl)cyclopropyl)-3-hydroxy-6-methylquinoline-4-carboxylic acid] returned an inhibition at 250 µM of at most 10%.
In turn, `COc1ccc2nc(C3(c4ccc(Cl)cc4)CC3)c(O)c(C(=O)O)c2c1` [Compound 20, 2-(1-(4-chlorophenyl)cyclopropyl)-3-hydroxy-6-methoxyquinoline-4-carboxylic acid] displayed an inhibition at 250 µM of at most 10%.
In turn, `O=C(O)c1c(O)c(C2(c3ccc(Cl)cc3)CC2)nc2ccc(OC(F)(F)F)cc12` [Compound 21, 2-(1-(4-chlorophenyl)cyclopropyl)-3-hydroxy-6-(trifluoromethoxy)quinoline-4-carboxylic acid] had an inhibition at 250 µM of 28%.
In the case of `O=C(O)c1c(O)c(C2(c3ccc(Cl)cc3)CC2)nc2ccc(Cl)cc12` [Compound 22, 6-chloro-2-(1-(4-chlorophenyl)cyclopropyl)-3-hydroxyquinoline-4-carboxylic acid] it was 26%; in that of `O=C(O)c1c(O)c(C2(c3ccc(Cl)cc3)CC2)nc2ccc(O)cc12` [Compound 23, 2-(1-(4-chlorophenyl)cyclopropyl)-3,6-dihydroxyquinoline-4-carboxylic acid], at most 10%.
In the case of `O=C(O)c1c(O)c(C2(c3ccc(Cl)cc3)CC2)nc2ccc(C(F)(F)F)cc12` [Compound 24, 2-(1-(4-chlorophenyl)cyclopropyl)-3-hydroxy-6-(trifluoromethyl)quinoline-4-carboxylic acid] it was 34%; in that of `CC(C)c1ccc2nc(C3(c4ccc(Cl)cc4)CC3)c(O)c(C(=O)O)c2c1` [Compound 25, 2-(1-(4-chlorophenyl)cyclopropyl)-3-hydroxy-6-isopropylquinoline-4-carboxylic acid], 14%.
In the case of `O=C(O)c1c(O)c(C2(c3ccccc3)CC2)nc2cc(Cl)ccc12` [Compound 26, 7-chloro-3-hydroxy-2-(1-Phenylcyclopropyl)quinoline-4-carboxylic acid], the inhibition at 250 µM was at most 10%.
As to `CCc1ccc2nc(C3(c4ccccc4)CC3)c(O)c(C(=O)O)c2c1` [Compound 27, 6-ethyl-3-hydroxy-2-(1-phenylcyclopropyl)quinoline-4-carboxylic acid], the inhibition at 250 µM was at most 10%.
As to `CCc1ccc2c(C(=O)O)c(O)c(C3(c4ccccc4)CC3)nc2c1` [Compound 28, 7-ethyl-3-hydroxy-2-(1-phenylcyclopropyl)quinoline-4-carboxylic acid], the inhibition at 250 µM is at most 10%.
